Data set [1] in a line: Autonomous activity test in mice. Conditions: male, ICR, mouse, in vivo, iv.
Data set [2] relates to ICR mice. The data set is described as follows: Acetic acid writhing test in mice. Format: in vivo. Conditions: Mus musculus, read-out: Acetic acid writhing in mice ED50.
For the next data set, the target named is κ receptor (Homo sapiens (Human), UniProt P41145). The data set is described as follows: Competitive Kappa receptor binding assay (3H-U69593).
For data set [3], the system named is ICR mice. Conditions: mouse, in vivo.
For the next data set, the target named is hERG (Homo sapiens (Human), UniProt Q12809). The data set can be described thus: in vitro. Conditions: pH 7.4.
The target in another data set is δ receptor (Homo sapiens (Human), UniProt P41143). The data set can be described thus: Competitive delta receptor binding assay (3H-DADLE).
For a further data set, the target named is μ receptor (Homo sapiens (Human), UniProt P35372). The data set is described as follows: μ receptor affinity assay (3H-DAMGO). Format: binding.
The target in data set [4] is κ-opioid receptor (Kappa) (Homo sapiens (Human), UniProt P41145). The data set is described as follows: In vitro functional assay, HTRF cAMP-Gi in CHO-K1-OPRK1 cells. Format: cell-based. On the technique in general: TR-FRET usually uses a lanthanide donor and a delayed reading to cut background.
The nature of a further data set: in vivo. Conditions: male, ICR, mouse, iv.
The subject of data set [5] is ICR mice. The data set can be described thus: Sedation safety window. Conditions: sedation side effect ED50 (autonomic activity test)/efficacy ED50 (acetic acid writhing test). Background: An intraperitoneal irritant provokes the stretching counted in writhing tests.
Data set [6] can be described thus: PK and blood-brain barrier permeability in mice. Format: in vivo. Conditions: male ICR mice, intravenous 1 mg/kg; for AUC(0-inf) / Vd / clearance / half-life / Cmax: plasma; for half-life: read-out: t½ (converted). As to the method: The compounds of the present disclosure were investigated for pharmacokinetic characteristics and blood-brain barrier permeability in mice.
Healthy male ICR mice were randomly grouped, 6 animals per group. For each test compound, 3 groups of animals were used. The first group of animals was used for collecting blood and brain 5 min after the administration, and the second group of animals and the third group of animals were used for cross blood collection at subsequent time points; each test compound was intravenously administered (1 mg/kg) to corresponding groups of mice, and blood sampling via submaxillary veins of the mice was carried out at different time points. Drug contents in plasma and brain tissues at different time points were measured by an LC-MS/MS method, the brain-to-blood ratio B/P was calculated by using EXCEL software, and pharmacokinetic parameters were calculated by using DAS3.0 software.

Setting [7] is: single intravenous injection, male ICR mice.

Like-named read-outs stand apart in the source and are kept apart here. A value given as a limit tells only on which side of the number the result lay.

`COC(=O)NC1CCN(C(=O)[C@@H](CCCCN)NC(=O)[C@@H](CC(C)C)NC(=O)[C@@H](Cc2ccccc2)NC(=O)[C@H](N)Cc2ccccc2)CC1` [Compound 1A]: in [1], the ED50 – broadly, the dose at which the effect has come halfway, by size or by number of responders – at 30 min worked out at 1.08 mg/kg. Besides, the ED50 with ICR mice [2] (setting [7]) worked out at 0.38 mg/kg. Besides, the Ki – broadly, a dissociation constant, usually derived from enzyme kinetics or from competition with a known ligand – at κ receptor is 0.4 nM; on δ receptor it was greater than 1000 nM; at μ receptor, greater than 1000 nM. Also, the Safety window in the data set with ICR mice [3] stood at 2.84. For the same compound, at hERG, the inhibition – broadly, the change of the read-out against control, counted positive when it falls – at 10 µM was -0.94%. In addition, the EC50 (as a rule, the concentration giving half of the maximal effect) in [4] turned out to be 0.05 nM.

Take `CC(C)C[C@@H](NC(=O)[C@@H](Cc1ccccc1)NC(=O)[C@H](N)Cc1ccccc1)C(=O)N[C@H](CCCCN)C(=O)N1CCS(=N)(=O)CC1` [Compound 1B, (R)—N—((R)-6-amino-1-(1-imino-1-oxo-1λ6-thiomorpholine)-1-oxohex-2-yl)-2-((R)-2-((R)-2-amino-3-phenylpropionylamino)-3-phenylpropionylamino)-4-methylpentanamide]: the results for the ED50 with ICR mice [2] (iv) and in the data set “in vivo” were 0.2 mg/kg and 0.5 mg/kg, respectively. The figures for the Ki at κ receptor, at δ receptor and at μ receptor were 0.42 nM, greater than 1000 nM and greater than 1000 nM, respectively. In the data set on ICR mice [3], this compound returned a Safety window of 2.50. Besides, at hERG, the inhibition at 10 µM came out at 1.2%. In addition, the EC50 in data set [4] was determined as 0.52 nM.

Turning to `CC(=O)N=S1(=O)CCN(C(=O)[C@@H](CCCCN)NC(=O)[C@@H](CC(C)C)NC(=O)[C@@H](Cc2ccccc2)NC(=O)[C@H](N)Cc2ccccc2)CC1` [Compound 3B], the ED50 in the data set with ICR mice [2] (iv) was determined as 0.42 mg/kg. Besides, the Ki was 1.05 nM at κ receptor, greater than 1000 nM at δ receptor and greater than 1000 nM on μ receptor. Besides, the Safety window in the data set on ICR mice [3] came to 7.74. The inhibition at 10 µM against hERG was 1.13%. In addition, the EC50 in data set [4] stood at 1 nM.

In data set [1], `CC(C)C[C@@H](NC(=O)[C@@H](Cc1ccccc1)NC(=O)[C@H](N)Cc1ccccc1)C(=O)N[C@H](CCCCN)C(=O)N1CCC2(CC1)OC(=O)Nc1ncccc12` [Compound 4A, (2R)—N-[(2R)-6-amino-1-oxo-1-{2′-oxo-1′H-spiro[piperidine-4,4′-pyrido[2,3-d][1,3]oxazin]-1-yl}hex-2-yl]-2-[(2R)-2-[(2R)-2-amino-3-phenylpropionylamino]-3-phenylpropionylamino]-4-methylpentanamide] showed an ED50 at 30 min of 1.25 mg/kg. Also, the ED50 in the data set with ICR mice [2] (setting [7]) amounted to 0.41 mg/kg. Besides, the Ki on κ receptor was 0.3 nM; at δ receptor, greater than 1000 nM; on μ receptor, greater than 1000 nM. For the same compound, the inhibition at 10 µM at hERG is 0.9%. Besides, the concentration for a half-maximal effect (EC50) in [4] was 0.2 nM. This compound also yielded a Safety window with ICR mice [5] of 3.05.

As for `COC(=O)NC1CCN(C(=O)[C@@H](CCCCN)NC(=O)[C@@H](CC(C)C)NC(=O)[C@@H](Cc2ccccc2)NC(=O)N(C)C(CN)c2ccccc2)CC1` (stereo partly drawn) [Compound 12, methyl N-{1-[(2R)-6-amino-2-[(2R)-2-[(2R)-2-{[(2-amino-1-phenylethyl)(methyl)carbamoyl]amino}-3-phenylpropionylamino]-4-methylpentanoylamino]hexanoyl]piperidin-4-yl}carbamate], the affinity on κ receptor, expressed as Ki, was 0.53 nM. In [6] (mouse, brain/plasma, blood and brain 5 min after administration, read-out: B/P (brain-to-blood ratio)), the Kp at 5 min worked out at 0.008. For the same compound, in [6] (mouse), the AUC(0-inf) (in general, total exposure, with the tail of the curve extrapolated) amounted to 3.68 µg·h/mL; the Vd (usually the apparent volume that relates the amount in the body to the concentration in plasma or blood) was 0.54 L/kg; the clearance (usually a measure of how efficiently the substance is removed, as volume per time) is 0.28 L/h/kg; the half-life was 85.2 min. In addition, the highest level in data set [6] (mouse) (Cmax) was 2.26 µg/mL. Also, at hERG, the inhibition at 10 µM is 2.13%. The Ki on δ receptor was greater than 1000 nM. Moreover, the Ki on μ receptor was greater than 1000 nM. This compound also had an EC50 in data set [4] of 0.17 nM.

In data set [1], `CC(C)C[C@@H](NC(=O)[C@@H](Cc1ccccc1)NC(=O)N(CCN)Cc1ccccc1)C(=O)N[C@H](CCCCN)C(=O)N1CCC(N)(C(=O)O)CC1` [Compound 13] showed an ED50 at 30 min of 2.83 mg/kg. In the data set on ICR mice [2] (setting [7]), the ED50 is 0.23 mg/kg. This compound had a Ki at κ receptor of 0.13 nM. The “B/P (brain-to-blood ratio)” value in [6] (blood and brain 5 min after administration) is recorded as 0.015. In data set [6] (mouse), the AUC(0-inf) is 1.35 µg·h/mL, the Vd turned out to be 0.38 L/kg, the clearance is 0.74 L/h/kg and the half-life was 21 min. Further, in [6] (mouse), the highest level (Cmax) was 2.54 µg/mL. Further, at hERG, the inhibition at 10 µM is 0.8%. The Ki on δ receptor was greater than 1000 nM. Moreover, at μ receptor, the Ki is greater than 1000 nM. In [4], this compound returned an EC50 of 0.52 nM. In the data set with ICR mice [5], the Safety window was found to be 12.30.

The values above are taken from patent publication US20250230129A1, “POLYAMIDE COMPOUNDS, METHOD FOR PREPARING SAME, AND MEDICAL USE THEREOF” (priority 2022, published 2025).
